Laboratory results: US20060106028A1, “Polycyclic aromatics and derivatives thereof and processes for their preparation” (priority 2004, published 2006)
pIC50: −log10 of the molar value. ≈ marks a conversion by molar mass, not a printed value.

Assays:
Assay type in all cases: cell-based
1121L (Lung) = experiment: In vitro cytotoxic activity, 36 tumor cell lines panel; settings: 96 hours
Method: (§1) Culture conditions and activity evaluations of Compound 1 against 36 cancer cell lines were done as described below. Results were expressed as the concentration of drug which inhibits 50% of the cell growth (IC50, calculated using the formula: [Ti/C]×100=−50).
(§2) The compound was dissolved at 10 mM in DMSO. Dilution in vehicle to concentrations of 30, 10, 3, 1 and 0.3 μM were prepared immediately before assays. Depending on the cell line's growth characteristics, 4000-10000 cells were plated in two 96-wells pates (day 0) and incubated for 16 hours. The following day, propidium iodide was added to one of the two plates. Test compound was added to the second plate, as well as vehicle control, and cells further incubated for 96 hours. The compound was tested at each concentration and in triplicates. The equivalent cell number was determined after adding propidium iodide by measuring the signal by fluorescence (Ti for test article, C for control).

1138L (Uterus) = experiment: as above; settings: 96 hours
Method: as §1, §2

1218L (Bladder) = experiment: as above; settings: 96 hours
Method: as §1, §2

1619L (Ovarian) = experiment: as above; settings: 96 hours
Method: as §1, §2

1657L (Pancreas) = experiment: as above; settings: 96 hours
Method: as §1, §2

1752L (Pleuramesot.) = experiment: as above; settings: 96 hours
Method: as §1, §2

1781L (Renal) = experiment: as above; settings: 96 hours
Method: as §1, §2

22RV1 (Prostate) = experiment: as above; settings: Homo sapiens, 96 hours
Method: as §1, §2

251L (Gastric) = experiment: as above; settings: 96 hours
Method: as §1, §2

276L (Melanoma) = experiment: as above; settings: 96 hours
Method: as §1, §2

289L (Lung) = experiment: as above; settings: 96 hours
Method: as §1, §2

393NL (Renal) = experiment: as above; settings: 96 hours
Method: as §1, §2

394NL (Melanoma) = experiment: as above; settings: 96 hours
Method: as §1, §2

401NL (Mammary) = experiment: as above; settings: 96 hours
Method: as §1, §2

462NL (Melanoma) = experiment: as above; settings: 96 hours
Method: as §1, §2

486L (Renal) = experiment: as above; settings: 96 hours
Method: as §1, §2

498NL (CNS) = experiment: as above; settings: 96 hours
Method: as §1, §2

514L (Melanoma) = experiment: as above; settings: 96 hours
Method: as §1, §2

520L (Melanoma) = experiment: as above; settings: 96 hours
Method: as §1, §2

526L (Lung) = experiment: as above; settings: 96 hours
Method: as §1, §2

529L (Lung) = experiment: as above; settings: 96 hours
Method: as §1, §2

536L (Head & Neck) = experiment: as above; settings: 96 hours
Method: as §1, §2

629L (Lung) = experiment: as above; settings: 96 hours
Method: as §1, §2

899L (Ovarian) = experiment: as above; settings: 96 hours
Method: as §1, §2

944L (Renal) = experiment: as above; settings: 96 hours
Method: as §1, §2

DU145 (Prostate) = experiment: as above; settings: Homo sapiens, DU-145, 96 hours
Method: as §1, §2

H460 (Lung) = experiment: as above; settings: Homo sapiens, NCI-H460, 96 hours
Method: as §1, §2

HCT116 (Colon) = experiment: as above; settings: Homo sapiens, HCT-116, 96 hours
Method: as §1, §2

HT29 (Colon) = experiment: as above; settings: Homo sapiens, HT-29, 96 hours
Method: as §1, §2

LNCAP (Prostate) = experiment: as above; settings: Homo sapiens, 96 hours
Method: as §1, §2

MCF7 (Mammary) = experiment: as above; settings: Homo sapiens, 96 hours
Method: as §1, §2

OVCAR3 (Ovarian) = experiment: as above; settings: Homo sapiens, OVCAR-3, 96 hours
Method: as §1, §2

PANC1 (Pancreas) = experiment: as above; settings: Homo sapiens, PANC-1, 96 hours
Method: as §1, §2

PC3M (Prostate) = experiment: as above; settings: Homo sapiens, PC-3M, 96 hours
Method: as §1, §2

SF268 (CNS) = experiment: as above; settings: Homo sapiens, SF-268, 96 hours
Method: as §1, §2

T24 (Bladder) = experiment: as above; settings: 96 hours
Method: as §1, §2

[1] = tested on: Staphylococcus aureus (ATCC™ 6538P); experiment: Antibacterial activity, MIC (NCCLS M7-A5); settings: MH medium, 35° C., 16 to 20 hours
[2] = tested on: Staphylococcus aureus MRS3 (ATCC™ 700699); experiment: Antibacterial activity, MIC (NCCLS M7-A5); settings: MH medium, 35° C., 16 to 20 hours
[3] = tested on: Enterococcus faecalis VRE-1 (ATCC™ 29212); experiment: Antibacterial activity, MIC (NCCLS M7-A5); settings: BHI+ medium, 35° C., 16 to 20 hours
[4] = tested on: Streptococcus pneumoniae (LSPQ 3412); experiment: Antibacterial activity, MIC (NCCLS M7-A5); settings: MH medium +2% lysed horse blood

CCC(C)c1cc2c(=O)c3ccc4c(OC)c5c(=O)c6c(O)ccc(O)c6c(=O)c5c(O)c4c3c(=O)c2c(=O)n1CC(=O)N1CC(C(=O)O)NC(=O)C1C (stereo not shown) [Compound 1]
pIC50 (1121L (Lung)): 6.20
pIC50 (1138L (Uterus)): > 6.39
pIC50 (1218L (Bladder)): 4.74
pIC50 (1619L (Ovarian)): 4.71
pIC50 (1657L (Pancreas)): 4.70
pIC50 (1752L (Pleuramesot.)): 5.37
pIC50 (1781L (Renal)): 5.12
pIC50 (22RV1 (Prostate)): 5.78
pIC50 (251L (Gastric)): 6.14
pIC50 (276L (Melanoma)): 5.08
pIC50 (289L (Lung)): 5.30
pIC50 (393NL (Renal)): 5.04
pIC50 (394NL (Melanoma)): 5.00
pIC50 (401NL (Mammary)): > 6.39
pIC50 (462NL (Melanoma)): 4.61
pIC50 (486L (Renal)): 4.68
pIC50 (498NL (CNS)): 5.43
pIC50 (514L (Melanoma)): 4.97
pIC50 (520L (Melanoma)): 5.14
pIC50 (526L (Lung)): 5.51
pIC50 (529L (Lung)): 5.66
pIC50 (536L (Head & Neck)): 4.65
pIC50 (629L (Lung)): 4.92
pIC50 (899L (Ovarian)): 4.46
pIC50 (944L (Renal)): 4.83
pIC50 (DU145 (Prostate)): > 6.39
pIC50 (H460 (Lung)): 5.22
pIC50 (HCT116 (Colon)): 5.08
pIC50 (HT29 (Colon)): 5.24
pIC50 (LNCAP (Prostate)): 6.14
pIC50 (MCF7 (Mammary)): 5.36
pIC50 (OVCAR3 (Ovarian)): 4.58
pIC50 (PANC1 (Pancreas)): 4.84
pIC50 (PC3M (Prostate)): 6.04
pIC50 (SF268 (CNS)): 5.82
pIC50 (T24 (Bladder)): 5.29
MIC [1]: 0.016 µg/mL (≈ 0.0217 µM)
MIC [2]: 0.016 µg/mL (≈ 0.0217 µM)
MIC [3]: 0.063 µg/mL (≈ 0.0854 µM)
MIC [4]: 0.5 to 1 µg/mL (≈ 0.678 to 1.36 µM)
